Data from patent US12139520B2 (priority 2020, dated 2024).
Numbered stars: 1 amine (or outer) side, 2 acyl side, 3 side chain; on linkers, the order of the positions; unused ones are H or OH. Bridge positions count the residues as written; N and C are the ends. Square brackets hold non-standard residues; d marks the D form. Peptide text beside a SMILES is read from it. * marks the point of attachment. C20 diacid = O=C(O)CCCCCCCCCCCCCCCCCCC(=O)*; γGlu = O=C(O)[C@H](CCC(=O)[*:2])N[*:1]; Hyp = O=C(O)[C@@H]1C[C@@H](O)CN1

Target: T1, hAMY3 receptor (Homo sapiens, UniProt O60896+P30988)
T1 sequence (P30988 25-474): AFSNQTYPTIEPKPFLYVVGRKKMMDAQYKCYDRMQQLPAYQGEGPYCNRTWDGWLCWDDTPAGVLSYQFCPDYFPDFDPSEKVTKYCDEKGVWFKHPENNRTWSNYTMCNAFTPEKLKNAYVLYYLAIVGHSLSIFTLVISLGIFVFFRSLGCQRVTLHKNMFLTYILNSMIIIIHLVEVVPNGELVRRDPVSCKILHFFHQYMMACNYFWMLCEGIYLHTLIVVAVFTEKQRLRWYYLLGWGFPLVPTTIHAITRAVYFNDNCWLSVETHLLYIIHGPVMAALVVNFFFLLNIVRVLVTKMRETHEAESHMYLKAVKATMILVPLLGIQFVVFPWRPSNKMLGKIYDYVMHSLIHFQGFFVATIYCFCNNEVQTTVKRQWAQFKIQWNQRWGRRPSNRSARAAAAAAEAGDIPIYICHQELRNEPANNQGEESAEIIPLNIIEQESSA
T1 sequence (O60896 24-148 partner): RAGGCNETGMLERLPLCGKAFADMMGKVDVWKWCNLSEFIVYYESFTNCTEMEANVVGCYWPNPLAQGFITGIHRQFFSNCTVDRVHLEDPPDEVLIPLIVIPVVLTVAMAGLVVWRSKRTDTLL
Test: cAMP assay for in vitro receptor activation, hAMY3-R
Format: cell-based
Details: cAMP assay, hAMY3 receptor; read-out: hAMY3R EC50
Experimental: General Protocols for cAMP Assays for Measuring In Vitro Receptor Activation
Cells stably overexpressing the hAMY3 receptor were obtained from Ogeda (now Astellas Pharma), sub-cloned and a monoclonal cell-line with an appropriate assay-window was expanded, aliquoted and frozen.
An aliquot was thawed and plated in DPBS with 0.05% casein and 0.5 mM IBMX as 2000 cells/well in a 384-well format. The cells were then immediately stimulated for 30 min at room temperature with graded doses of test compound using human amylin (Bachem, cat no. H-7905) as a positive control. cAMP accumulation was measured using a Cisbio assay for Gs coupled receptors (cat. no. 62AM4PEC), where the assay reagents were added as per the manufacturer's instructions and time-resolved fluorescence energy transfer recorded after one hour.

Row | SMILES | EC50
1 | CC[C@H](C)[C@H](NC(=O)[C@H](CCC(N)=O)NC(=O)[C@H](Cc1c[nH]cn1)NC(=O)[C@H](C)NC(=O)[C@H](CC(C)C)NC(=O)[C@H](CCCNC(=N)N)NC(=O)[C@H](CCC(N)=O)NC(=O)[C@@H](NC(=O)[C@@H](NC(=O)[C@@H]1CSSC[C@H](NC(=O)[C@H](CCCCN)NC(=O)CC[C@H](NC(=O)CCCCCCCCCCCCCCCCCCC(=O)O)C(=O)O)C(=O)N[C@@H](CC(N)=O)C(=O)N[C@@H]([C@@H](C)O)C(=O)N[C@@H](C)C(=O)N[C@@H]([C@@H](C)O)C(=O)N1)[C@@H](C)O)C(C)C)C(=O)N[C@@H](Cc1ccc(O)cc1)C(=O)N[C@@H](CCC(N)=O)C(=O)N[C@@H](Cc1ccc(O)cc1)C(=O)N[C@H](C(=O)N[C@@H](CC(=O)O)C(=O)N[C@@H](CCCCN)C(=O)N[C@@H](CC(=O)O)C(=O)N[C@@H](CCCCN)C(=O)N[C@@H](CC(=O)O)C(=O)N[C@@H](CC(N)=O)C(=O)N[C@H](C(=O)N[C@@H](C)C(=O)N1CCC[C@H]1C(=O)N1CCC[C@H]1C(=O)N[C@H](C(=O)N[C@@H](CC(N)=O)C(=O)N[C@H](C(=O)NCC(=O)N[C@@H](CO)C(=O)N[C@@H](CC(N)=O)C(=O)NCC(=O)N1C[C@H](O)C[C@H]1C(N)=O)C(C)C)[C@@H](C)O)C(C)C)[C@@H](C)O [compound 48] ({C20 diacid-γGlu}-KCNTATCTVQRLAHQIYQYTDKDKDNVAPPTNVGSNG[Hyp]-NH2; disulfide 2-7) | 11 pM
2 | CC[C@H](C)[C@H](NC(=O)[C@H](CCC(N)=O)NC(=O)[C@H](Cc1c[nH]cn1)NC(=O)[C@H](C)NC(=O)[C@H](CC(C)C)NC(=O)[C@H](CCCNC(=N)N)NC(=O)[C@H](CCC(N)=O)NC(=O)[C@@H](NC(=O)[C@@H](NC(=O)[C@@H]1CSSC[C@H](NC(=O)[C@@H](N)CCCCN)C(=O)N[C@@H](CC(N)=O)C(=O)N[C@@H](Cc2ccccc2)C(=O)N[C@@H](C)C(=O)N[C@@H]([C@@H](C)O)C(=O)N1)[C@@H](C)O)C(C)C)C(=O)N[C@@H](Cc1ccc(O)cc1)C(=O)N[C@@H](CCC(N)=O)C(=O)N[C@@H](Cc1ccccc1)C(=O)N[C@H](C(=O)N[C@@H](CC(=O)O)C(=O)N[C@@H](CCCCN)C(=O)N[C@@H](CC(=O)O)C(=O)N[C@@H](CCCCN)C(=O)N[C@@H](CC(=O)O)C(=O)N[C@@H](CC(N)=O)C(=O)N[C@H](C(=O)N[C@@H](C)C(=O)N1CCC[C@H]1C(=O)N[C@@H](CCCNC(=N)N)C(=O)N[C@H](C(=O)N[C@@H](CCCCN)C(=O)N[C@H](C(=O)NCC(=O)N[C@@H](CO)C(=O)N[C@@H](CC(N)=O)C(=O)NCC(=O)N1C[C@H](O)C[C@H]1C(N)=O)C(C)C)[C@@H](C)O)C(C)C)[C@@H](C)O [compound 3] (H-KCNFATCTVQRLAHQIYQFTDKDKDNVAPRTKVGSNG[Hyp]-NH2; disulfide 2-7) | 6 pM
3 | CC[C@H](C)[C@H](NC(=O)[C@H](CCC(N)=O)NC(=O)[C@H](Cc1c[nH]cn1)NC(=O)[C@H](C)NC(=O)[C@H](CC(C)C)NC(=O)[C@H](CCCNC(=N)N)NC(=O)[C@H](CCC(N)=O)NC(=O)[C@@H](NC(=O)[C@@H](NC(=O)[C@@H]1CSSC[C@H](NC(=O)[C@@H](N)CCCCN)C(=O)N[C@@H](CC(N)=O)C(=O)N[C@@H](Cc2ccccc2)C(=O)N[C@@H](C)C(=O)N[C@@H]([C@@H](C)O)C(=O)N1)[C@@H](C)O)C(C)C)C(=O)N[C@@H](Cc1ccc(O)cc1)C(=O)N[C@@H](CCC(N)=O)C(=O)N[C@@H](Cc1ccccc1)C(=O)N[C@H](C(=O)N[C@@H](CC(=O)O)C(=O)N[C@@H](CCCCN)C(=O)N[C@@H](CC(=O)O)C(=O)N[C@@H](CCCCN)C(=O)N[C@@H](CC(=O)O)C(=O)N[C@@H](CC(N)=O)C(=O)N[C@H](C(=O)N[C@@H](C)C(=O)N1CCC[C@H]1C(=O)N[C@@H](CCCNC(=N)N)C(=O)N[C@H](C(=O)N[C@@H](CCC(=O)O)C(=O)N[C@H](C(=O)NCC(=O)N[C@@H](CO)C(=O)N[C@@H](CC(N)=O)C(=O)NCC(=O)N1C[C@H](O)C[C@H]1C(N)=O)C(C)C)[C@@H](C)O)C(C)C)[C@@H](C)O [compound 17] (H-KCNFATCTVQRLAHQIYQFTDKDKDNVAPRTEVGSNG[Hyp]-NH2; disulfide 2-7; N-terminus assumed) | 8 pM

Now from value to molecule:

Row | EC50 | SMILES
4 | 31 pM | CC[C@H](C)[C@H](NC(=O)[C@H](CCC(N)=O)NC(=O)[C@H](Cc1c[nH]cn1)NC(=O)[C@H](C)NC(=O)[C@H](CC(C)C)NC(=O)[C@H](CCCNC(=N)N)NC(=O)[C@H](CCC(N)=O)NC(=O)[C@@H](NC(=O)[C@@H](NC(=O)[C@@H]1CSSC[C@H](NC(=O)CNC(=O)CC[C@H](NC(=O)CCCCCCCCCCCCCCCCCCC(=O)O)C(=O)O)C(=O)N[C@@H](CCCNC(=N)N)C(=O)N[C@@H](Cc2ccccc2)C(=O)N[C@@H](C)C(=O)N[C@@H]([C@@H](C)O)C(=O)N1)[C@@H](C)O)C(C)C)C(=O)N[C@@H](Cc1ccc(O)cc1)C(=O)N[C@@H](CCC(N)=O)C(=O)N[C@@H](Cc1ccccc1)C(=O)N[C@H](C(=O)N[C@@H](CC(=O)O)C(=O)N[C@@H](CCCCN)C(=O)N[C@@H](CC(=O)O)C(=O)N[C@@H](CCCCN)C(=O)N[C@@H](CC(=O)O)C(=O)N[C@@H](CC(N)=O)C(=O)N[C@H](C(=O)N[C@@H](C)C(=O)N1CCC[C@H]1C(=O)N[C@@H](CCCNC(=N)N)C(=O)N[C@H](C(=O)N[C@@H](CCCCN)C(=O)N[C@H](C(=O)NCC(=O)N1CCC[C@H]1C(=O)N[C@@H](CCC(N)=O)C(=O)NCC(=O)N[C@@H](Cc1ccc(O)cc1)C(N)=O)C(C)C)[C@@H](C)O)C(C)C)[C@@H](C)O [compound 380] ({C20 diacid-γGlu}-GCRFATCTVQRLAHQIYQFTDKDKDNVAPRTKVGPQGY-NH2; disulfide 2-7)
5 | 17 pM | CC[C@H](C)[C@H](NC(=O)[C@H](CCC(N)=O)NC(=O)[C@H](Cc1c[nH]cn1)NC(=O)[C@H](C)NC(=O)[C@H](CC(C)C)NC(=O)[C@H](CCCNC(=N)N)NC(=O)[C@H](CCC(N)=O)NC(=O)[C@@H](NC(=O)[C@@H](NC(=O)[C@@H]1CSSC[C@H](NC(=O)[C@H](CCCCN)NC(=O)CC[C@H](NC(=O)CCCCCCCCCCCCCCCCCCC(=O)O)C(=O)O)C(=O)N[C@@H](CC(N)=O)C(=O)N[C@@H](Cc2ccccc2)C(=O)N[C@@H](C)C(=O)N[C@@H]([C@@H](C)O)C(=O)N1)[C@@H](C)O)C(C)C)C(=O)N[C@@H](Cc1ccc(O)cc1)C(=O)N[C@@H](CCC(N)=O)C(=O)N[C@@H](Cc1ccccc1)C(=O)N[C@H](C(=O)N[C@@H](CC(=O)O)C(=O)N[C@@H](CCCCN)C(=O)N[C@@H](CC(=O)O)C(=O)N[C@@H](CCCCN)C(=O)N[C@@H](CC(=O)O)C(=O)N[C@@H](CC(N)=O)C(=O)N[C@H](C(=O)N[C@@H](C)C(=O)N1CCC[C@H]1C(=O)N[C@@H](CCCNC(=N)N)C(=O)N[C@H](C(=O)N[C@@H](CCC(=O)O)C(=O)N[C@H](C(=O)NCC(=O)N[C@@H](CO)C(=O)N[C@@H](CC(N)=O)C(=O)NCC(=O)N[C@@H](Cc1ccc(O)cc1)C(N)=O)C(C)C)[C@@H](C)O)C(C)C)[C@@H](C)O [compound 370] ({C20 diacid-γGlu}-KCNFATCTVQRLAHQIYQFTDKDKDNVAPRTEVGSNGY-NH2; disulfide 2-7)
6 | 12 pM | CC[C@H](C)[C@H](NC(=O)[C@H](CCCCN)NC(=O)[C@@H](NC(=O)[C@H](CCCNC(=N)N)NC(=O)[C@@H]1CCCN1C(=O)[C@H](C)NC(=O)[C@@H](NC(=O)[C@H](CC(N)=O)NC(=O)[C@H](CC(=O)O)NC(=O)[C@H](CCCCN)NC(=O)[C@H](CC(=O)O)NC(=O)[C@H](CCCCN)NC(=O)[C@H](CC(=O)O)NC(=O)[C@@H](NC(=O)[C@H](Cc1ccccc1)NC(=O)[C@H](CCC(N)=O)NC(=O)[C@H](Cc1ccc(O)cc1)NC(=O)[C@H](CC(C)C)NC(=O)[C@H](Cc1ccccc1)NC(=O)[C@H](Cc1c[nH]cn1)NC(=O)[C@H](C)NC(=O)[C@H](CC(C)C)NC(=O)[C@H](CCCNC(=N)N)NC(=O)[C@H](CCC(N)=O)NC(=O)[C@@H](NC(=O)[C@@H](NC(=O)[C@@H]1CSSC[C@H](NC(=O)CN)C(=O)N[C@@H](CCCNC(=N)N)C(=O)N[C@@H](Cc2ccccc2)C(=O)NCC(=O)N[C@@H]([C@@H](C)O)C(=O)N1)[C@@H](C)O)C(C)C)[C@@H](C)O)C(C)C)[C@@H](C)O)C(=O)NCC(=O)N1CCC[C@H]1C(=O)N[C@@H](CCC(N)=O)C(=O)NCC(=O)N[C@@H](Cc1ccc(O)cc1)C(N)=O [compound 365] (H-GCRFGTCTVQRLAHFLYQFTDKDKDNVAPRTKIGPQGY-NH2; disulfide 2-7)
